Source: patent publication US20130165641A1, “6,11-BRIDGED BIARYL MACROLIDES” (Enanta Pharmaceuticals, Inc., priority 2007, published 2013)
Values after ≈ are worked out from the molar mass of the structure shown.

Test system: MRSA
Assay: MIC by micro-dilution method, MRSA isolates
Type: cell-based, Staphylococcus aureus
Conditions: compounds of Formula XVI; for MIC MRSA 7662: MRSA isolate 7662; for MIC MRSA 33591: MRSA isolate 33591
Experimental: Susceptibility tests can be used to quantitatively measure the in vitro activity of an antimicrobial agent against a given bacterial isolate. Compounds are tested for in vitro antibacterial activity by a micro-dilution method. Minimal Inhibitory Concentration (MIC) is determined in 96 well microtiter plates utilizing the appropriate broth medium for the observed bacterial isolates. […] The diluted compounds (2 μl/well) are then transferred into sterile, uninoculated medium (0.2 mL) by use of a 96 fixed tip-pipetting station. The inoculum for each bacterial strain is standardized to approximately 5×10^5 CFU/mL by optical comparison to a 0.5 McFarland turbidity standard. The plates are inoculated with 10 μl/well of adjusted bacterial inoculum. The 96 well plates are covered and incubated at 35+/−2° C. for 24 hours in ambient air environment. Following incubation, plate wells are visually examined by Optical Density measurement for the presence of growth (turbidity). The lowest concentration of an antimicrobial agent at which no visible growth occurs is defined as the MIC.
All in vitro testing follows the guidelines described in the Approved Standards M7-A7 protocol, published by the Clinical Laboratory Standards Institute (CLSI).

Row | SMILES | MIC MRSA 7662 [mg/L] | MIC MRSA 33591 [mg/L]
1 | CCC(=O)N=C1[C@H](C)C[C@@]2(C)OC/C(=N/OCc3ccc(-c4csc(N)n4)cn3)CO[C@H]([C@H]1C)[C@](C)(O)[C@@H](CC)OC(=O)[C@@](C)(F)C(=O)[C@H](C)[C@H]2O[C@@H]1O[C@H](C)C[C@H](N(C)C)[C@H]1O [Example 125] | 4 (≈ 4.42 µM) | 8 (≈ 8.84 µM)
2 | CCC1OC(=O)C(C)(F)C(=O)C(C)C(OC2OC(C)CC(N(C)C)C2O)C2(C)CC(C)C(=NC(C)=O)C(C)C(OCC(=NOCc3ccc(-n4ccc(N)n4)cc3)CO2)C1(C)O (stereo not drawn) [Example 81] | 4 (≈ 4.58 µM) | 4 (≈ 4.58 µM)
3 | CCCC(=O)N=C1C(C)CC2(C)OCC(=NOCc3ccc(-c4cccc(N)n4)cn3)COC(C1C)C(C)(O)C(CC)OC(=O)C(C)(F)C(=O)C(C)C2OC1OC(C)CC(N(C)C)C1O (stereo not drawn) [Example 76] | 4 (≈ 4.38 µM) | 4 (≈ 4.38 µM)
4 | CCC1OC(=O)C(C)(F)C(=O)C(C)C(OC2OC(C)CC(N(C)C)C2O)C2(C)CC(C)C(=NC(=O)C(C)C)C(C)C(OCC(=NOCc3ccc(-n4ccc(N)n4)nc3)CO2)C1(C)O (stereo not drawn) [Example 86] | 4 (≈ 4.43 µM) | 4 (≈ 4.43 µM)
5 | CCC(=O)N=C1C(C)CC2(C)OCC(=NOCc3ccc(-c4cccc(N)n4)cn3)COC(C1C)C(C)(O)C(CC)OC(=O)C(C)(F)C(=O)C(C)C2OC1OC(C)CC(N(C)C)C1O (stereo not drawn) [Example 75] | 4 (≈ 4.45 µM) | 4 (≈ 4.45 µM)
6 | CC[C@H]1OC(=O)[C@@](C)(F)C(=O)[C@H](C)[C@@H](O[C@@H]2O[C@H](C)C[C@H](N(C)C)[C@H]2O)[C@@]2(C)C[C@@H](C)C(=NC(=O)C(C)C)[C@H](C)[C@@H](OC/C(=N\OCc3ccc(-c4nccc(N)n4)cn3)CO2)[C@]1(C)O [Example 114] | 4 (≈ 4.38 µM) | 8 (≈ 8.75 µM)
7 | CC[C@H]1OC(=O)[C@@](C)(F)C(=O)[C@H](C)[C@@H](O[C@@H]2O[C@H](C)C[C@H](N(C)C)[C@H]2O)[C@@]2(C)C[C@@H](C)C(=NC(=O)C(C)C)[C@H](C)[C@@H](OC/C(=N\OCc3ccc(-c4nsc(N)n4)cn3)CO2)[C@]1(C)O [Example 130] | 2.00 (≈ 2.17 µM) | 4.00 (≈ 4.35 µM)
8 | CCC1OC(=O)C(C)(F)C(=O)C(C)C(OC2OC(C)CC(N(C)C)C2O)C2(C)CC(C)C(=NC(C)=O)C(C)C(OCC(=NOCc3ccc(-n4ccc(N)n4)nc3)CO2)C1(C)O (stereo not drawn) [Example 78] | 8 (≈ 9.15 µM) | 8 (≈ 9.15 µM)
9 | CC[C@H]1OC(=O)[C@H](C)C(=O)[C@H](C)[C@@H](O[C@@H]2O[C@H](C)C[C@H](N(C)C)[C@H]2O)[C@@]2(C)C[C@@H](C)C(=NC(C)=O)[C@H](C)[C@@H](OC/C(=N\OCc3ccc(-c4nc(N)cs4)cn3)CO2)[C@]1(C)O [Example 108] | 8 (≈ 9.16 µM) | 8 (≈ 9.16 µM)
10 | CC[C@H]1OC(=O)[C@@](C)(F)C(=O)[C@H](C)[C@@H](O[C@@H]2O[C@H](C)C[C@H](N(C)C)[C@H]2O)[C@@]2(C)C[C@@H](C)C(=NC(C)=O)[C@H](C)[C@@H](OC/C(=N\OCc3csc(-c4cccc(N)n4)n3)CO2)[C@]1(C)O [Example 136] | 2.00 (≈ 2.24 µM) | 2.00 (≈ 2.24 µM)
11 | CC[C@H]1OC(=O)[C@@](C)(F)C(=O)[C@H](C)[C@@H](O[C@@H]2O[C@H](C)C[C@H](N(C)C)[C@H]2O)[C@@]2(C)C[C@@H](C)C(=NC(=O)C(C)C)[C@H](C)[C@@H](OC/C(=N\OCc3coc(-c4cccc(N)n4)n3)CO2)[C@]1(C)O [Example 118] | 4 (≈ 4.43 µM) | 8 (≈ 8.86 µM)
12 | CCC1OC(=O)C(C)(F)C(=O)C(C)C(OC2OC(C)CC(N(C)C)C2O)C2(C)CC(C)C(=NC(C)=O)C(C)C(OCC(=NOCc3cnc(-c4cccc(N)n4)s3)CO2)C1(C)O (stereo not drawn) [Example 97] | 8 (≈ 8.98 µM) | 8 (≈ 8.98 µM)
13 | CCC(=O)N=C1[C@H](C)C[C@@]2(C)OC/C(=N/OCc3cnc(-c4cccc(N)n4)s3)CO[C@H]([C@H]1C)[C@](C)(O)[C@@H](CC)OC(=O)[C@@](C)(F)C(=O)[C@H](C)[C@H]2O[C@@H]1O[C@H](C)C[C@H](N(C)C)[C@H]1O [Example 117] | 2 (≈ 2.21 µM) | 4 (≈ 4.42 µM)
14 | CCC(=O)N=C1[C@H](C)C[C@@]2(C)OC/C(=N/OCc3ccc(-c4csc(N)n4)cc3)CO[C@H]([C@H]1C)[C@](C)(O)[C@@H](CC)OC(=O)[C@@](C)(F)C(=O)[C@H](C)[C@H]2O[C@@H]1O[C@H](C)C[C@H](N(C)C)[C@H]1O [Example 122] | 4.00 (≈ 4.42 µM) | 4.00 (≈ 4.42 µM)
15 | CC[C@H]1OC(=O)[C@@](C)(F)C(=O)[C@H](C)[C@@H](O[C@@H]2O[C@H](C)C[C@H](N(C)C)[C@H]2O)[C@@]2(C)C[C@@H](C)C(=NC(C)=O)[C@H](C)[C@@H](OC/C(=N\OCc3ccc(-n4ccc(N)n4)cc3OC)CO2)[C@]1(C)O [Example 99] | 8 (≈ 8.86 µM) | 8 (≈ 8.86 µM)
16 | CCC1OC(=O)C(C)(F)C(=O)C(C)C(OC2OC(C)CC(N(C)C)C2O)C2(C)CC(C)C(=NC(C)=O)C(C)C(OCC(=NOCc3ccc(-n4ccc(N)n4)c(F)c3)CO2)C1(C)O (stereo not drawn) [Example 95] | 8 (≈ 8.98 µM) | 8 (≈ 8.98 µM)
17 | CCC(=O)N=C1[C@H](C)C[C@@]2(C)OC/C(=N/OCc3ncc(-c4nc(N)cs4)cn3)CO[C@H]([C@H]1C)[C@](C)(O)[C@@H](CC)OC(=O)[C@@](C)(F)C(=O)[C@H](C)[C@H]2O[C@@H]1O[C@H](C)C[C@H](N(C)C)[C@H]1O [Example 132] | 2.00 (≈ 2.21 µM) | 4.00 (≈ 4.41 µM)
18 | CCC(=O)N=C1[C@H](C)C[C@@]2(C)OC/C(=N/OCc3cnc(-c4nccc(N)n4)s3)CO[C@H]([C@H]1C)[C@](C)(O)[C@@H](CC)OC(=O)[C@@](C)(F)C(=O)[C@H](C)[C@H]2O[C@@H]1O[C@H](C)C[C@H](N(C)C)[C@H]1O [Example 131] | 4.00 (≈ 4.41 µM) | 8.00 (≈ 8.83 µM)
19 | CCC(=O)N=C1[C@H](C)C[C@@]2(C)OC/C(=N/OCc3ncc(-c4cccc(N)n4)s3)CO[C@H]([C@H]1C)[C@](C)(O)[C@@H](CC)OC(=O)[C@@](C)(F)C(=O)[C@H](C)[C@H]2O[C@@H]1O[C@H](C)C[C@H](N(C)C)[C@H]1O [Example 110] | 2 (≈ 2.21 µM) | 2 (≈ 2.21 µM)
20 | C=Cc1cn(-c2ccc(CON=C3COC4C(C)C(=NC(C)=O)C(C)CC(C)(OC3)C(OC3OC(C)CC(N(C)C)C3O)C(C)C(=O)C(C)(F)C(=O)OC(CC)C4(C)O)nc2)nc1N (stereo not drawn) [Example 96] | 8 (≈ 8.89 µM) | 8 (≈ 8.89 µM)
21 | CC[C@H]1OC(=O)[C@@](C)(F)C(=O)[C@H](C)[C@@H](O[C@@H]2O[C@H](C)C[C@H](N(C)C)[C@H]2O)[C@@]2(C)C[C@@H](C)C(=NC(C)=O)[C@H](C)[C@@H](OC/C(=N\OCc3ccc(-c4nc(N)cs4)cn3)CO2)[C@]1(C)O [Example 101] | 2 (≈ 2.24 µM) | 4 (≈ 4.49 µM)
22 | CC[C@H]1OC(=O)[C@@](C)(F)C(=O)[C@H](C)[C@@H](O[C@@H]2O[C@H](C)C[C@H](N(C)C)[C@H]2O)[C@@]2(C)C[C@@H](C)C(=NC(C)=O)[C@H](C)[C@@H](OC/C(=N\OCc3ccc(-c4nccc(N)n4)cc3)CO2)[C@]1(C)O [Example 105] | 8 (≈ 9.04 µM) | 8 (≈ 9.04 µM)
23 | CCC1OC(=O)C(C)(F)C(=O)C(C)C(OC2OC(C)CC(N(C)C)C2O)C2(C)CC(C)C(=NC(C)=O)C(C)C(OCC(=NOCc3ccc(-c4cccc(N)n4)cn3)CO2)C1(C)O (stereo not drawn) [Example 74] | 8 (≈ 9.04 µM) | 8 (≈ 9.04 µM)
24 | CCC1OC(=O)C(C)(F)C(=O)C(C)C(OC2OC(C)CC(N(C)C)C2O)C2(C)CC(C)C(=NC(=O)C(C)C)C(C)C(OCC(=NOCc3ccc(-n4ccc(N)n4)cn3)CO2)C1(C)O (stereo not drawn) [Example 87] | 2 (≈ 2.22 µM) | 4 (≈ 4.43 µM)
25 | CCC1OC(=O)C(C)C(=O)C(C)C(OC2OC(C)CC(N(C)C)C2O)C2(C)CC(C)C(=NC(=O)C(C)C)C(C)C(OCC(=NOCc3ccc(-n4ccc(N)n4)cc3F)CO2)C1(C)O (stereo not drawn) [Example 98] | 8 (≈ 8.88 µM) | 8 (≈ 8.88 µM)
26 | CCC1OC(=O)C(C)(F)C(=O)C(C)C(OC2OC(C)CC(N(C)C)C2O)C2(C)CC(C)C(=NC(C)=O)C(C)C(OCC(=NOCc3ccc(-n4ccc(N)n4)cc3Cl)CO2)C1(C)O (stereo not drawn) [Example 89] | 4 (≈ 4.41 µM) | 4 (≈ 4.41 µM)
27 | CCC(=O)N=C1[C@H](C)C[C@@]2(C)OC/C(=N/OCc3ccc(-c4nc(N)cs4)nc3)CO[C@H]([C@H]1C)[C@](C)(O)[C@@H](CC)OC(=O)[C@@](C)(F)C(=O)[C@H](C)[C@H]2O[C@@H]1O[C@H](C)C[C@H](N(C)C)[C@H]1O [Example 128] | 4.00 (≈ 4.42 µM) | 8.00 (≈ 8.84 µM)
28 | CCC1OC(=O)C(C)C(=O)C(C)C(OC2OC(C)CC(N(C)C)C2O)C2(C)CC(C)C(=NC(=O)C(C)C)C(C)C(OCC(=NOCc3ccc(-n4ccc(N)n4)cc3)CO2)C1(C)O (stereo not drawn) [Example 90] | 8 (≈ 9.06 µM) | 8 (≈ 9.06 µM)
29 | CCC(=O)N=C1[C@H](C)C[C@@]2(C)OC/C(=N/OCc3ccc(-c4nc(N)cs4)cn3)CO[C@H]([C@H]1C)[C@](C)(O)[C@@H](CC)OC(=O)[C@H](C)C(=O)[C@H](C)[C@H]2O[C@@H]1O[C@H](C)C[C@H](N(C)C)[C@H]1O [Example 119] | 4 (≈ 4.51 µM) | 8 (≈ 9.02 µM)
30 | CCC(=O)N=C1[C@H](C)C[C@@]2(C)OC/C(=N/OCc3ccc(-c4nc(N)cs4)cc3)CO[C@H]([C@H]1C)[C@](C)(O)[C@@H](CC)OC(=O)[C@H](C)C(=O)[C@H](C)[C@H]2O[C@@H]1O[C@H](C)C[C@H](N(C)C)[C@H]1O [Example 121] | 8 (≈ 9.03 µM) | 8 (≈ 9.03 µM)
